In brackets after ≈: the same amount, converted by molar mass.

Data set [1] has as its system methicillin-resistant Staphylococcus epidermidis (MRSE) 12228. The data set is described as follows: MIC by broth microdilution (CLSI). The data set is classed as cell-based. For orientation: Broth dilution looks for growth in wells or tubes with falling amounts of substance.
Data set [2] in a line: Acute toxicity test in mice. The class given is in vivo. The conditions noted are these: intraperitoneal injection 300 mg/kg. On the procedure: Acute toxicity test in mice. The acute toxicity test in mice was performed according to the requirements of the Chinese Guidelines for Acute Toxicity of Chemicals (H-GPT1-1) ([42]). In brief, each group of 6 female mice (6 to 8 weeks old, weights of 18 to 20 g, BALB/c) was intraperitoneally injected with a single dose of 300, 150, or 75 mg/kg body weight of WYBQ-4. The mice were injected with PBS as a control group. Then, the poisoning symptoms, abnormal behavior, and survival of the mice in each group were observed within 72 h.

The target in a further data set is PBP2a (Staphylococcus aureus, UniProt P07944). Description: PBP2a acylation kinetics, nitrocefin competition assay. The class given is biochemical, MRSA. Here is the method: Please refer to the supplemental material for the kinetic parameters of the interaction between WYBQ-4 and PBP2a and the determination of the rate of diacylation.
Supplementary Method. 1 Determination of the Kinetic Parameters for Interactions of […]
Determination of the kinetic parameters for interactions of WYBQ-4 with PBP2a The kinetic parameters of the interaction of WYBQ-4 with PBP2a were determined as previously described (1). The kinetics of the reaction between PBP2a of MRSA with WYBQ-4 was studied in homogeneous aqueous solution at 37℃ in 25 mM Hepes buffer, pH 7.0, containing 1 M NaCl and the inhibition of PBPs by β-lactams follows this kinetic scheme. […]
In this minimal scheme, E represents PBP2a, EI is the noncovalent preacylation complex, E-I is the covalent acyl-enzyme species, and P denotes the product of E-I hydrolysis and restoration of […]
The typical reactions of β-lactam could be monitored through competition with a chromophoric β-lactam, nitrocefin, or directly in certain cases by fluorescence intensity of protein. In this study, it is proposed to determine the secondary rate constants (k2/Ks) of WYBQ-4 by nitrocefin competition assay. The reaction was conducted in the above buffer, and the reaction system contained PBP2a (2.5 μM) and different concentrations of nitrocefin (20-120 μM). The reaction was carried out in a UV spectrophotometer (PERSEE T600, China) and the change in absorbance at 500 nm was […]
Apparent first-order rate constants for acylation by nitrocefin were determined by fitting the change in absorbance with time to eqn. (1):
A = A0 + ∆εn E0[(1 − exp (−kn∗ t)] + k0N0∆εn Ε0t (1) where A0 is the initial absorbance at 500 nm, ∆εn the change in molar absorption coefficient on nitrocefin hydrolysis (15900 M-1cm-1), E0 the initial enzyme concentration, N0 the initial nitrocefin concentration, kn* the (burst) pseudo-first-order rate constant for acylation of PBP2a by nitrocefin, and k0 the (line) second-order rate constant of a non-specific hydrolysis of nitrocefin in the presence of PBP2a. The second-order rate constants (kn) for acylation were calculated by fitting a plot of the apparent first-order rate constants (kn*) against the concentration of nitrocefin using a linear least-squares method.
Subsequently, nitrocefin (100 μM) was used as a reporter molecule to determine the apparent first-order rate constants for acylation of WYBQ-4 at different concentrations (0-500 μM) in competition assays. In this case, the change in absorbance at 500 nm with time was fitted to eqn.
Α = A + ∆ε E (k∗ ∕ (k∗ + k∗)(1 − exp (−(k∗ + k∗)t)) + k N ∆ε Ε t (2) […]

The next data set concerns MRSA USA300. The data set is described as follows: Mouse lung infection model, bacterial load and histopathology. The data set is classed as in vivo, mice. As to conditions: mouse pneumonia. Here is the method: The mice were challenged with 1 × 10^8 CFU of MRSA USA300 to assess bacterial load and pathological changes. The dose and manner of administration in mice were consistent with the survival experiments. In addition, the mice treated with ceftaroline fosamil at 75 and 37.5 mg/kg were used as control groups. At 48 h postinfection, mice were euthanized, and the left lungs were aseptically removed, weighed, and homogenized. Then, the lung tissues were homogenized and serially diluted for CFU counts. The right lungs were fixed with 10% formalin, embedded in paraffin, thin-sectioned, subjected to conventional hematoxylin and eosin (H&E) staining, and then observed using an optical microscope.

Sequence of PBP2a (P07944 whole entry): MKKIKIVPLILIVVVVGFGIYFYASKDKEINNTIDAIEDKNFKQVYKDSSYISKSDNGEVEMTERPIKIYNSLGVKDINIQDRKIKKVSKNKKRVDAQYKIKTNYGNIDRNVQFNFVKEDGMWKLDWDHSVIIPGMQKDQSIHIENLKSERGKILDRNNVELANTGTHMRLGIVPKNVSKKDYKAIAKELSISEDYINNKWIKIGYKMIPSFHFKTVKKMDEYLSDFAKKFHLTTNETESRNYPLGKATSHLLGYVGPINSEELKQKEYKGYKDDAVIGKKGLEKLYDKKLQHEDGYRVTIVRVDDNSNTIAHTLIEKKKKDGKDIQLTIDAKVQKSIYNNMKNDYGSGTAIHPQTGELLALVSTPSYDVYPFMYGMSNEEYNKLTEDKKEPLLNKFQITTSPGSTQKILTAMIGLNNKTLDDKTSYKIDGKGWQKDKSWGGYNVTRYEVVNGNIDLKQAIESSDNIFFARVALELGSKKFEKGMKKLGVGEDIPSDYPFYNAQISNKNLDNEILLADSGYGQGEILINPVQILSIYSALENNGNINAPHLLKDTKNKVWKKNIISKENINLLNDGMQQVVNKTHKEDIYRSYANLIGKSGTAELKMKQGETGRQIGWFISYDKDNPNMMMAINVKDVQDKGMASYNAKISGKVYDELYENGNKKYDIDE

One may read the MIC as the smallest concentration in the dilution series that meets the test's criterion for growth inhibition. Low values mean a more susceptible organism, high ones a less susceptible organism. In turn, `C#CCO[C@@]1(NC(=O)CSc2cccc(C)c2)C(=O)N2C(C(=O)O)=C(CSc3nnnn3C)CSC21` (stereo partly drawn) [WYBQ-4] showed an MIC in data set [1] of 4 mg/L (≈ 7.32 µM). Moreover, the “acute toxicity, survival of mice” value in data set [2] is “did not affect the survival of the mice”. Moreover, the k2 at PBP2a (PBP2a acylation) stood at 4.872 ± 0.14 s^–1 × 10^3. Besides, the kinact/KI at PBP2a (pH 7, read-out: k2/ks) was 174 ± 8.45 M⁻¹ s⁻¹. In the data set with MRSA USA300 (USA300 1 × 10^8 CFU, 75 mg/kg, 48 h postinfection), the “bacterial counts in the lung” value was 5.44 ± 0.15 log10 CFU/g. In addition, in the data set on MRSA USA300 (USA300, after treatment), the “inflammatory signs of lung tissue (H&E histopathology)” value is reported as “significantly reduced”.

These data come from article PMC9603521, “WYBQ-4: a New Bactericidal Agent against Methicillin-Resistant Staphylococcus aureus” (Microbiology Spectrum, 2022).
